Activity calls are given as the source filed them. The rule behind the calls is not given here.
Tests used:
[1] = target: T1, Signal transducer and activator of transcription 5B (Homo sapiens) (UniProt P51692); experiment: Inhibition of STAT5B phosphorylation in human Imatinib-resistant K562 cells up to 5 uM incubated for 24 hrs by Western blotting analysis; format: cell-based
T1 sequence (whole entry): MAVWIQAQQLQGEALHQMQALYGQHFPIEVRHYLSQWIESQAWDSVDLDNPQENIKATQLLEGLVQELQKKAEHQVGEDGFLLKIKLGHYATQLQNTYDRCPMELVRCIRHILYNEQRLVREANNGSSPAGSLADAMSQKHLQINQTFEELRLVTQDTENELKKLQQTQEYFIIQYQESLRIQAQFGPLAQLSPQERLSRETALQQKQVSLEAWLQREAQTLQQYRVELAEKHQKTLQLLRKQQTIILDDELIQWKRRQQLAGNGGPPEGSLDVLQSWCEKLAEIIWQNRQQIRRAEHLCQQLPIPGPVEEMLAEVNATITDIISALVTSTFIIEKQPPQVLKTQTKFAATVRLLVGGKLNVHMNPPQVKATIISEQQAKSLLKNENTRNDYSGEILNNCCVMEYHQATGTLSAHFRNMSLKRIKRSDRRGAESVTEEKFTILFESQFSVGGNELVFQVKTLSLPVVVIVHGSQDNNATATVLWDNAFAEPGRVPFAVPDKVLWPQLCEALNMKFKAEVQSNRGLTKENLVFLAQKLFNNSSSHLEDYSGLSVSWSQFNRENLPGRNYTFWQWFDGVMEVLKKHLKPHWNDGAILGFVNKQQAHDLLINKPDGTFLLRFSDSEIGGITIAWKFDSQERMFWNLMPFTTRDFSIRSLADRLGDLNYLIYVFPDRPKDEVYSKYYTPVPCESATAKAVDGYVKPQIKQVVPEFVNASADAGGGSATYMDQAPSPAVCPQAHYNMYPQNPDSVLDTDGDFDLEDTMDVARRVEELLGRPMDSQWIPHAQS

KCL-22 [2] = experiment: Antiproliferative activity against human KCL-22 cells measured after 72 hrs by MTT assay; format: functional, cell-based
MV4-11 [3] = experiment: Potency index, ratio of Pimozide EC50 to test compound EC50 for antileukemic activity against human MV4-11 cells assessed as inhibition of cell growth incubated for 48 hrs by MTT assay; format: functional
MOLM-13 [4] = experiment: Antileukemic activity against human MOLM-13 assessed as cell viability incubated for 48 hrs by MTT assay; format: functional, cell-based; details: MOLM-13, 48 h
K562-IMA[r] [5] = experiment: Antiproliferative activity against human Imatinib-resistant K562 cells assessed as inhibition of cell growth at 100 nM measured after 72 hrs by MTT assay; format: functional, cell-based
MV4-11 [6] = experiment: Antileukemic activity against human MV4-11 cell line assessed as inhibition of cell growth incubated for 48 hrs by MTT assay; format: functional, cell-based; details: MV4-11, 48 h
KU812 cell line [7] = experiment: Antileukemic activity against human KU812 cell line co-cultured with human HS-27A in presence of Imatinib; format: functional, cell-based
MOLM-13 [8] = experiment: Antiproliferative activity against human MOLM-13 cells measured after 72 hrs by MTT assay; format: functional, cell-based
[9] = Cytotoxicity against human HS-27A assessed as cell viability incubated for 48 hrs by MTT assay; format: toxicity, cell-based; details: HS-27A cells
MV4-11 [10] = experiment: Downregulation of STAT5A expression in human MV4-11 cells by Western blot analysis; format: functional, cell-based
MV4-11 [11] = experiment: Downregulation of STAT5B expression in human MV4-11 cells by Western blot analysis; format: functional, cell-based
KCL-22 [12] = experiment: Antileukemic activity against human KCL-22 assessed as cell viability incubated for 48 hrs by MTT assay; format: functional, cell-based; details: KCL-22, 48 h
[13] = Potency index, ratio of Pimozide EC50 to test compound EC50 for antileukemic activity against human K562 cells assessed as inhibition of cell growth incubated for 48 hrs by MTT assay; format: functional
[14] = target: T1, Signal transducer and activator of transcription 5B (Homo sapiens); experiment: Inhibition of STAT5B phosphorylation in human MV4-11 cells incubated for 24 hrs by Western blotting analysis; format: cell-based
MV4-11 [15] = experiment: Antileukemic activity against human MV4-11 cells co-cultured with human HS-27A in presence of Ara-c; format: functional, cell-based
BaF3 = experiment: Downregulation of STAT5B N642H mutant expression in mouse BaF3 cells incubated for 24 hrs by Western blot analysis; format: functional, cell-based; details: dose <= 5.0 µM
K562-IMA[r] [16] = experiment: Downregulation of STAT5B expression in human Imatinib-resistant K562 cells by Western blot analysis; format: functional, cell-based
K562 [17] = experiment: Antileukemic activity against human K562 assessed as cell viability incubated for 48 hrs by MTT assay; format: functional, cell-based; details: K562, 48 h
[18] = Cytotoxicity against Bone marrow cell (unknown origin) assessed as cell viability incubated for 48 hrs by MTT assay; format: toxicity, cell-based; details: bone marrow cells (unknown origin)
[19] = Potency index, ratio of Pimozide EC50 to test compound EC50 for antileukemic activity against human KU812 cell line assessed as inhibition of cell growth incubated for 48 hrs by MTT assay; format: functional
MV4-11 [20] = experiment: Antileukemic activity against human MV4-11 cells co-cultured with human HS-27A in presence of Imatinib; format: functional, cell-based
[21] = target: T2, Signal transducer and activator of transcription 5A (Homo sapiens) (UniProt P42229); experiment: Inhibition of STAT5A phosphorylation in human KU812 cell line incubated for 24 hrs by Western blotting analysis; format: cell-based
T2 sequence (whole entry): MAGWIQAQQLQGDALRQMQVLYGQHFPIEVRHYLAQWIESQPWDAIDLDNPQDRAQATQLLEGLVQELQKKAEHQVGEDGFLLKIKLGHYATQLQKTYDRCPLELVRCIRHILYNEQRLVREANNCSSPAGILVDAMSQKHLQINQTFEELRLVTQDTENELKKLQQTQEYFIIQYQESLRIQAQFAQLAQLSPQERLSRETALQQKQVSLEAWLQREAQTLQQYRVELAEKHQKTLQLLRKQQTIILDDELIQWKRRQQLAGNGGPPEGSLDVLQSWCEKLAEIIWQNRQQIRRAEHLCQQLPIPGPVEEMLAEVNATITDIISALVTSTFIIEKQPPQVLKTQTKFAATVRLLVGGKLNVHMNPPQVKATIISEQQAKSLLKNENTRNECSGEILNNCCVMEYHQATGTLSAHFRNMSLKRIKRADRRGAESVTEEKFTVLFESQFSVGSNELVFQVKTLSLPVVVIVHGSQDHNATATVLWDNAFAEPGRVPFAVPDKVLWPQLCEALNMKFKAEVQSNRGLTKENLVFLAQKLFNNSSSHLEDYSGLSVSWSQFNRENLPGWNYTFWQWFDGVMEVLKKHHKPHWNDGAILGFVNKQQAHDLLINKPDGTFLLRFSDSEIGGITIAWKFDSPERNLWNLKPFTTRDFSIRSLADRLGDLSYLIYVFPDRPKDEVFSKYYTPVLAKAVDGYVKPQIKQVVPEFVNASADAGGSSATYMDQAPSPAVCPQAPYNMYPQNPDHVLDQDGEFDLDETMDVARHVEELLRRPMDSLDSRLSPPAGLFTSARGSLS

K562 [22] = experiment: Antiproliferative activity against human K562 cells measured after 72 hrs by MTT assay; format: functional, cell-based
KU812 cell line [23] = experiment: Antileukemic activity against human KU812 cell line assessed as inhibition of cell growth incubated for 48 hrs by MTT assay; format: functional, cell-based; details: KU812, 48 h
[24] = Potency index, ratio of Pimozide EC50 to test compound EC50 for antileukemic activity against human MOLM-13 cells assessed as inhibition of cell growth incubated for 48 hrs by MTT assay; format: functional
[25] = target: T1, Signal transducer and activator of transcription 5B (Homo sapiens); experiment: Inhibition of STAT5B phosphorylation in human KU812 cell line incubated for 24 hrs by Western blotting analysis; format: cell-based
[26] = target: T2, Signal transducer and activator of transcription 5A (Homo sapiens); experiment: Inhibition of STAT5A phosphorylation in human MV4-11 cells incubated for 24 hrs by Western blotting analysis; format: cell-based
KU812 cell line [27] = experiment: Antileukemic activity against human KU812 cell line co-cultured with human HS-27A in presence of Ara-c; format: functional, cell-based
KU812 cell line [28] = experiment: Antiproliferative activity against human KU812 cell line measured after 72 hrs by MTT assay; format: functional, cell-based
MV4-11 [29] = experiment: Antiproliferative activity against human MV4-11 cells measured after 72 hrs by MTT assay; format: functional, cell-based
KU812 [30] = experiment: Downregulation of STAT5B expression in human KU812 cell line by Western blot analysis; format: functional, cell-based
K562-IMA[r] [31] = experiment: Downregulation of STAT5A expression in human Imatinib-resistant K562 cells by Western blot analysis; format: functional, cell-based
[32] = Potency index, ratio of Pimozide EC50 to test compound EC50 for antileukemic activity against human KCL-22 cells assessed as inhibition of cell growth incubated for 48 hrs by MTT assay; format: functional
KU812 [33] = experiment: Downregulation of STAT5A expression in human KU812 cell line by Western blot analysis; format: functional, cell-based
[34] = target: T2, Signal transducer and activator of transcription 5A (Homo sapiens); experiment: Inhibition of STAT5A phosphorylation in human Imatinib-resistant K562 cells up to 5 uM incubated for 24 hrs by Western blotting analysis; format: cell-based

## CC1(C)CCN(CCOc2ccc3[nH]ccc3c2)c2cccc(-c3cnc(N)nc3)c21
[1]
  inhibition: Active
KCL-22 [2]
  Activity: Active
MV4-11 [3]
  Ratio EC50: 5
MOLM-13 [4]
  EC50: 300 nM
K562-IMA[r] [5]
  Activity: Active
MV4-11 [6]
  EC50: 300 nM
KU812 cell line [7]
  Activity: Active
MOLM-13 [8]
  Activity: Active
[9]
  EC50 at 48 h: 44.1 µM
MV4-11 [10]
  Activity: inactive
MV4-11 [11]
  Activity: Active
KCL-22 [12]
  EC50: 500 nM
[13]
  Ratio EC50: 5
[14]
  inhibition: Active
MV4-11 [15]
  Activity: Active
BaF3
  Activity: Dose-dependent-effect
K562-IMA[r] [16]
  Activity: Active
K562 [17]
  EC50: 800 nM
[18]
  EC50 at 48 h: 12 µM
[19]
  Ratio EC50: 5
MV4-11 [20]
  Activity: Active
[21]
  inhibition: Active
K562 [22]
  Activity: Active
KU812 cell line [23]
  EC50: 600 nM
[24]
  Ratio EC50: 5
[25]
  inhibition: Active
[26]
  inhibition: Active
KU812 cell line [27]
  Activity: Active
KU812 cell line [28]
  Activity: Active
MV4-11 [29]
  Activity: Active
KU812 [30]
  Activity: Active
K562-IMA[r] [31]
  Activity: Active
[32]
  Ratio EC50: 5
KU812 [33]
  Activity: inactive
[34]
  inhibition: Active
